Source: publication PMC10974533, “Cationicity Enhancement on the Hydrophilic Face of Ctriporin Significantly Reduces Its Hemolytic Activity and Improves the Antimicrobial Activity against Antibiotic-Resistant ESKAPE Pathogens” (Toxins, 2024)
Where a SMILES comes first, the peptide text is derived from it.

Key:
Format in all cases: cell-based
A. baumannii ATCC19606 = test: MIC, broth dilution, standard strain; conditions: broth dilution (CLSI), MHB, 5 × 10^5 CFU/mL, 37 °C, 16–20 h, OD630, repeated at least three times
Procedure: (§1) The standard strains, including S. aureus ATCC29213 and ATCC25923, E. faecalis ATCC29212, E. coli ATCC25922 and ATCC35218, A. baumannii ATCC19606, K. pneumoniae ATCC700603, and P. aeruginosa ATCC27853, were purchased from the China Center of Type Culture Collection (CCTCC). The clinical strains of the ESKAPE pathogens were isolated from the affiliated hospitals of Hubei University of Medicine. All of them were stored at −80 °C before use. The drug sensitivities of the clinical strains were determined by the Kirby–Bauer test.
(§2) The MICs were determined using the broth dilution method according to the guidelines of the Clinical and Laboratory Standards Institute (CLSI), as described in the previous studies. Briefly, the bacterial cells were incubated in Mueller–Hinton broth (MHB, Oxoid, Basingstoke, UK) at 37 °C and 150 rpm to the mid-growth phase and diluted to achieve a final concentration of 5 × 10^5 colony-forming units per milliliter (CFU/mL). Then, the cells were mixed with each peptide in different concentrations (1, 2, 4, 8, 16, 32, and 64 μg/mL). […] All experiments were repeated at least three times.

E. coli ATCC25922 = test: MIC, broth dilution, standard strain; conditions: broth dilution (CLSI), MHB, 5 × 10^5 CFU/mL, 37 °C, 16–20 h, OD630, repeated at least three times
Procedure: as §1, §2

E. coli ATCC35218 = test: MIC, broth dilution, standard strain; conditions: broth dilution (CLSI), MHB, 5 × 10^5 CFU/mL, 37 °C, 16–20 h, OD630, repeated at least three times
Procedure: as §1, §2

E. faecium ATCC29212 = test: MIC, broth dilution, standard strain; conditions: broth dilution (CLSI), MHB, 5 × 10^5 CFU/mL, 37 °C, 16–20 h, OD630, repeated at least three times
Procedure: as §1, §2

K. pneumoniae ATCC700603 = test: MIC, broth dilution, standard strain; conditions: broth dilution (CLSI), MHB, 5 × 10^5 CFU/mL, 37 °C, 16–20 h, OD630, repeated at least three times
Procedure: as §1, §2

P. aeruginosa ATCC27853 = test: MIC, broth dilution, standard strain; conditions: broth dilution (CLSI), MHB, 5 × 10^5 CFU/mL, 37 °C, 16–20 h, OD630, repeated at least three times
Procedure: as §1, §2

S. aureus ATCC25923 = test: MIC, broth dilution, standard strain; conditions: broth dilution (CLSI), MHB, 5 × 10^5 CFU/mL, 37 °C, 16–20 h, OD630, repeated at least three times
Procedure: as §1, §2

S. aureus ATCC29213 = test: MIC, broth dilution, standard strain; conditions: broth dilution (CLSI), MHB, 5 × 10^5 CFU/mL, 37 °C, 16–20 h, OD630, repeated at least three times
Procedure: as §1, §2

[1] = test system: human red blood cells (hRBC); test: Hemolytic activity determination; conditions: 2% (v/v) hRBC, 37 °C, 1 h
Procedure: Figure 2 Hemolytic activities of Ctriporin and its analogs against human red blood cells (hRBC). Hemolytic activities of Ctriporin (solid circle), CM1 (open circle), CM2 (open square), CM3 (upward triangle), CM4 (downward triangle), CM5 (half solid circle), CM6 (half solid square), and CM7 (half solid triangle), were measured against 2% (v/v) human red blood cells. The peptide concentrations are 0, 2, 4, 8, 16, 32, 64, 128, 256, and 512 μg/mL. The cells treated with 1% Triton X-100 were treated as 100% hemolysis. All experiments were repeated three times, and the data shown are the average ± standard error.
The hemolytic activities of the peptides were determined against human red blood cells (hRBCs). As described, sodium citrate-anticoagulated hRBCs were washed three times with 0.9% sodium chloride and diluted to a final concentration of 4% (v/v). Then, an equal volume of hRBC solutions was mixed with an equal volume of each peptide in a series of concentrations (0, 2, 4, 8, 16, 32, 64, 128, 256, and 512 μg/mL). After co-incubation at 37 °C for 1 h, the degree of hemolysis of the peptides was determined by detecting the release of hemoglobin from the damaged hRBCs by measuring the optical density at 540 nm (OD540). hRBCs in 0.9% sodium chloride and 1% Triton X-100 were considered 0% and 100% hemolysis, respectively. The results shown are the average ± standard error of data derived from three independent experiments. The percent hemolysis was calculated according to the following equation [53, 54]:Hemolysis (%) = 100 × (Asample − Ablank)/(Apositive − Ablank)

A. baumannii 19295 = test: MIC, broth dilution, clinical isolate; conditions: CRE/MDR clinical isolate; broth dilution (CLSI), MHB, 5 × 10^5 CFU/mL, 37 °C, 16–20 h, OD630
Procedure: as §1, §2

A. baumannii 19462 = test: MIC, broth dilution, clinical isolate; conditions: CRE/MDR clinical isolate; broth dilution (CLSI), MHB, 5 × 10^5 CFU/mL, 37 °C, 16–20 h, OD630
Procedure: as §1, §2

A. baumannii 19618 = test: MIC, broth dilution, clinical isolate; conditions: CRE/MDR clinical isolate; broth dilution (CLSI), MHB, 5 × 10^5 CFU/mL, 37 °C, 16–20 h, OD630
Procedure: as §1, §2

E. coli 2678 = test: MIC, broth dilution, clinical isolate; conditions: ESBL clinical isolate; broth dilution (CLSI), MHB, 5 × 10^5 CFU/mL, 37 °C, 16–20 h, OD630
Procedure: as §1, §2

E. coli 2687 = test: MIC, broth dilution, clinical isolate; conditions: ESBL clinical isolate; broth dilution (CLSI), MHB, 5 × 10^5 CFU/mL, 37 °C, 16–20 h, OD630
Procedure: as §1, §2

E. faecium 898 = test: MIC, broth dilution, clinical isolate; conditions: MDR clinical isolate; broth dilution (CLSI), MHB, 5 × 10^5 CFU/mL, 37 °C, 16–20 h, OD630
Procedure: as §1, §2

K. pneumoniae 9126 = test: MIC, broth dilution, clinical isolate; conditions: CRE clinical isolate; broth dilution (CLSI), MHB, 5 × 10^5 CFU/mL, 37 °C, 16–20 h, OD630
Procedure: as §1, §2

P. aeruginosa 9014 = test: MIC, broth dilution, clinical isolate; conditions: CRE/MDR clinical isolate; broth dilution (CLSI), MHB, 5 × 10^5 CFU/mL, 37 °C, 16–20 h, OD630
Procedure: as §1, §2

S. aureus 891 = test: MIC, broth dilution, clinical isolate; conditions: MRSA clinical isolate; broth dilution (CLSI), MHB, 5 × 10^5 CFU/mL, 37 °C, 16–20 h, OD630
Procedure: as §1, §2

S. aureus 9124 = test: MIC, broth dilution, clinical isolate; conditions: MRSA clinical isolate; broth dilution (CLSI), MHB, 5 × 10^5 CFU/mL, 37 °C, 16–20 h, OD630
Procedure: as §1, §2

S. capitis 3255 = test: MIC, broth dilution, clinical isolate; conditions: MRSC clinical isolate; broth dilution (CLSI), MHB, 5 × 10^5 CFU/mL, 37 °C, 16–20 h, OD630
Procedure: as §1, §2

S. epidermidis 6943 = test: MIC, broth dilution, clinical isolate; conditions: MRSE clinical isolate; broth dilution (CLSI), MHB, 5 × 10^5 CFU/mL, 37 °C, 16–20 h, OD630
Procedure: as §1, §2

S. epidermidis 9092 = test: MIC, broth dilution, clinical isolate; conditions: MRSE clinical isolate; broth dilution (CLSI), MHB, 5 × 10^5 CFU/mL, 37 °C, 16–20 h, OD630
Procedure: as §1, §2

standard ESKAPE strains = conditions: broth dilution (CLSI), MHB, 37 °C, 16–20 h; range over all standard strains
Procedure: The ESKAPE pathogens represent the main threat to public health concerning antimicrobial resistance. Therefore, we first evaluated the antimicrobial activities of Ctriporin and its analogs against the standard ESKAPE strains. The minimum inhibitory concentration (MIC) was chosen as the index for the evaluation of each peptide’s activity. […] Note that the MICs of CM4 and CM7 are 4–32 and 8–32 μg/mL, respectively, indicating the existence of significant bacterial species deviations for the antimicrobial activity of these peptides. In addition, the replacement of specific residues, especially Pro^7, may harm the antimicrobial activities of the peptide.
as §1, §2

[2] = test system: clinical isolates of CRE and multidrug-resistant (MDR) A. baumannii; conditions: broth dilution (CLSI), MHB
Procedure: To further evaluate the antimicrobial potential of CM5 and CM6, the MICs of these two peptides, as well as the parent peptide Ctriporin, were determined against clinical antibiotic-resistant isolates of ESKAPE strains. […] Note that CRE and MDR A. baumannii are listed at the top of the pathogens threatening public health. Compared with the parent peptide Ctriporin, eight to sixteen times improvement in terms of antimicrobial activity was obtained through our peptide design strategy.
as §2

`CC[C@H](C)[C@H](NC(=O)[C@H](C)NC(=O)[C@H](CCCCN)NC(=O)[C@@H]1CCCN1C(=O)[C@@H](NC(=O)[C@H](CC(C)C)NC(=O)[C@H](CCCCN)NC(=O)[C@H](Cc1c[nH]c2ccccc12)NC(=O)[C@H](CC(C)C)NC(=O)[C@@H](N)Cc1ccccc1)[C@@H](C)CC)C(=O)N[C@@H](CCCCN)C(=O)N[C@@H](CCCCN)C(=O)N[C@H](C(=O)N[C@@H](CCCCN)C(=O)N[C@@H](CCCCN)C(=O)N[C@@H](CC(C)C)C(=O)N[C@H](C(=O)N[C@@H](CCCCN)C(=O)N[C@@H](CCCCN)C(N)=O)[C@@H](C)CC)C(C)C` [CM6] (H-FLWKLIPKAIKKVKKLIKK-NH2) was tested, and the MICs (A. baumannii ATCC19606) was 4 µg/mL, the MICs (E. coli ATCC25922) was 8 µg/mL and the MICs (E. coli ATCC35218) was 8 µg/mL. It also gave an MICs (E. faecium ATCC29212) of 8 µg/mL, an MICs (K. pneumoniae ATCC700603) of 8 µg/mL and an MICs (P. aeruginosa ATCC27853) of 4 µg/mL. For the same molecule, the MICs (S. aureus ATCC25923) was 8 µg/mL, the MICs (S. aureus ATCC29213) was 8 µg/mL and the “curve of hemolysis% vs. peptide concentration (Figure 2)” value ([1]; 0–512 μg/mL peptide, compared in words) was “decreased dramatically compared with Ctriporin”. The “Hemolysis% at 256 μg/mL” value ([1]; 256 μg/mL peptide, OD540, 1% Triton X-100 = 100%, average ± standard error of three independent experiments) was 8.1 ± 1.9%, the MICs (A. baumannii 19295) was 2 µg/mL and the MICs (A. baumannii 19462) was 2 µg/mL. It also gave an MICs (A. baumannii 19618) of 2 µg/mL, an MICs (E. coli 2678) of 8 µg/mL and an MICs (E. coli 2687) of 8 µg/mL. For the same molecule, the MICs (E. faecium 898) was 4 µg/mL, the MICs (K. pneumoniae 9126) was 16 µg/mL and the MICs (P. aeruginosa 9014) was 8 µg/mL. It also gave an MICs (S. aureus 891) of 8 µg/mL, an MICs (S. aureus 9124) of 8 µg/mL and an MICs (S. capitis 3255) of 2 µg/mL. The MICs (S. epidermidis 6943) was 4 µg/mL, the MICs (S. epidermidis 9092) was 4 µg/mL and the “MICs against the ESKAPE pathogens (range over the standard strains of Table 2)” value (standard ESKAPE strains) was 4 to 8 µg/mL. For the same molecule, the “MIC values against clinical isolates of CRE and MDR A. baumannii” value [2] was 2 µg/mL.
